Results on nine molecules are retold here after ChEMBL document CHEMBL1127209, “Aromatic isosteres as conformational probes for an isoprenyl subunit: application to inhibitors of squalene synthase” (Bioorg Med Chem Lett, 1993).

In one data set the target is T1, Squalene synthase (Rattus norvegicus, UniProt Q02769).
T1 sequence (Q02769 whole entry): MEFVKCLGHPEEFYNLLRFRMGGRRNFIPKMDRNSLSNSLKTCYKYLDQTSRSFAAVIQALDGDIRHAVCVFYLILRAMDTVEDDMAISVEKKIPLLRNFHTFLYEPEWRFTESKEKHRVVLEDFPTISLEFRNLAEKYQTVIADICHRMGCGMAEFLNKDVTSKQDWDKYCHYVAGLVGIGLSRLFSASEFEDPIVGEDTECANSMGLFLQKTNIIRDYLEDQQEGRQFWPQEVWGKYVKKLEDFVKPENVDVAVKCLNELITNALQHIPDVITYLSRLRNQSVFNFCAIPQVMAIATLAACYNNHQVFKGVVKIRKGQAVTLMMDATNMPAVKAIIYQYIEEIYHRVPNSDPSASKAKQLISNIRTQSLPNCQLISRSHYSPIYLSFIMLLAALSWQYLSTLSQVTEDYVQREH
Briefly: Tested for inhibitory potency against rat liver microsomal squalene synthase. As to conditions: for IC50: read-out: I50. (Microsomes from liver hold many membrane-bound enzymes, among them those of drug oxidation.)

Substrate in data set [1]: CC(C)=CCC/C(C)=C\CC/C(C)=C/COCP(=O)(O)CP(=O)(O)O
Nature of the data set: Tested for Michaelis-Menten constant for squalene synthase.

As usually defined, the Ki is the dissociation constant of the complex between target and ligand, obtained from inhibition or displacement. In the case of `CC(C)=CCC/C(C)=C\CC/C(C)=C/COCP(=O)(O)CP(=O)(O)O`, at Squalene synthase, the affinity corresponds to a Ki of 37 nM and the IC50 worked out at 0.05 µM.

Take `CC(C)=CCC/C(C)=C/c1ccc(COCP(=O)(O)CP(=O)(O)O)cc1`: at Squalene synthase, the IC50 is 0.125 µM.

In the case of `CC(C)=CCC/C(C)=C/c1cccc(COCP(=O)(O)CP(=O)(O)O)c1`, the IC50 at Squalene synthase is 5.1 µM.

For `CC(C)=CCC/C(C)=C\CC/C=C/COCP(=O)(O)CP(=O)(O)O`, on Squalene synthase, the IC50 amounted to 0.165 µM.

For `CC(C)=CCC/C(C)=C/c1cc(C)c(COCP(=O)(O)CP(=O)(O)O)o1`, the IC50 on Squalene synthase was determined as 41.3 µM.

`CC(C)=CCC/C(C)=C/c1ccc(COCP(=O)(O)CP(=O)(O)O)c(C)c1`: on Squalene synthase, the IC50 was determined as 13.7 µM.

In the case of `CC(C)=CCC/C(C)=C/c1cc(C)c(COCP(=O)(O)CP(=O)(O)O)s1`, the IC50 on Squalene synthase is 5.3 µM.

`CC(C)=CCC/C(C)=C/c1ccc(COCP(=O)(O)CP(=O)(O)O)s1`: on Squalene synthase, the IC50 amounted to 0.964 µM.

B1: Squalene synthase (Rattus norvegicus), Q02769 (protein)
chain: T1 sequence (Q02769 whole entry)
By Km is commonly meant the concentration of substrate that gives half-maximal velocity. As to B1, in data set [1], the Michaelis constant (Km) came out at 12.7 µM.
